Tests used:
[1] = tested on: MGMT positive human melanoma cells A375; experiment: Colony formation assay (cytotoxicity), A375 melanoma cells; assay type: cell-based; conditions: 48-hour drug incubation, colonies counted 7-10 days later, compared at similar concentrations (FIG. 2)
Description: (§1) The cytotoxicity of TMZ, POH-TMZ, and POH-TMZ-Linoleate were studied by colony formation assay of A2058 and A375 melanoma cells. A2058 and A375 cells were harvested and made single cell suspension in culture medium (DMEM with 10% FBS, 1% Penicillin/Streptomycin). 500 cells/well were seeded into 12-well plate (tissue culture treated, from Olympus Plastics) pre-warmed culture medium at 37° C. The cells were cultured overnight for attachment to the plate. Then the medium was removed and replaced with fresh medium containing varied concentrations of drugs (or no drugs as a control) for further 48-hour incubation. After 48 hours treatment, the medium was aspirated and replaced with normal culture medium. 7-10 days later, the culture medium was aspirated, and the colonies formed inside the wells were washed with cold PBS once. Then the colonies were stained with 0.1% methylene blue (in methanol) for 4-6 hours. The plates were then washed and the formed colonies counted (the colonies formed with 20 cells or more are countable).

[2] = tested on: MGMT negative human melanoma cells A2058; experiment: Colony formation assay (cytotoxicity), A2058 melanoma cells; assay type: cell-based; conditions: 48-hour drug incubation, colonies counted 7-10 days later, compared at similar concentrations (FIG. 1)
Description: as §1

[3] = tested on: human melanoma tumor cells, A2058; experiment: In vivo tumor growth inhibition, subcutaneous A2058 melanoma in nude mice, topical treatment, with CD31 histology
Description: Inhibition of tumor growth by POH-TMZ-linoleate was studied in nude mice. Nude mice were injected subcutaneously with 2×10^6 human melanoma tumor cells, A2058. The melanoma cells were allowed to form a palpable nodule in the mice. When the tumor size reached 1.0-1.5 cm in diameter in any dimension, a control mouse was treated topically with a vehicle (10% DMSO in 45% Glycerol+45% ethanol), and a test mouse was topically treated with TPL (50 mM TPL working solution was reconstituted in 45% Glycerol+45% Ethanol, and 100 μl (25 mg/kg) was applied topically on the skin which covers the whole tumor). The control mouse and the test mouse were both treated twice daily for 14 days.
After the 14 days of treatment the mice were sacrificed, the tumor removed, sectioned at 8 μm, fixed with acetone, and stored at −20° C. For histological analysis, the tissues were blocked with sea block and stained with the primary antibody Rat anti Mouse (1:50) overnight following which secondary biotinylated goat anti rat antibody (1:200) was added for 45 minutes, washed and avidin biotin complex, ABC elite was added for 30 minutes, washed and then stained with AEC and counter stained with hematoxylin. Such staining was used to evaluate the endothelial marker CD31 expression, which is representative of the amounts of blood vessels in the tumor. Staining images were captured at 40× under optical microscope. […] The histological analysis results were further quantified using ImageJ software by measuring the average area of staining in the tumors of the test mouse after TPL treatment and the control mouse, where the average area of staining was calculated based on the red precipitate of the stain in μm^2. From FIG. 5, it can be seen that the average area of staining is much smaller in the tumor of the test mouse than that in the control mouse.

| Compound | colonies count (effectiveness in killing the melanoma cells) [1] | colonies count (effectiveness in killing the melanoma cells) [2] | tumor angiogenesis (CD31 staining, visual inspection) versus vehicle-treated mouse ([3]; after 14 days of topical treatment, FIGS. 4D-4F vs 4A-4C) | average area of CD31 staining in the tumor versus control mouse ([3]; after 14 days of topical treatment, ImageJ quantification, FIG. 5) | vascularization of the tumor compared with the tumor before the treatment ([3]; topical 25 mg/kg twice daily for 14 days, FIG. 3B vs FIG. 3A) | appearance of the tumor surface after treatment ([3]; topical 50 mM, 100 μl (25 mg/kg) twice daily for 14 days, FIG. 3B) |
| --- | --- | --- | --- | --- | --- | --- |
| C=C(C)[C@@H]1CC=C(COC(=O)NC(=O)c2ncn3c(=O)n(C)nnc23)CC1 [POH-TMZ, reference compound] | more effective than TMZ | more effective than TMZ | – | – | – | – |
| C=C(C)[C@@H]1CC=C(COC(=O)N(C(=O)CCCCCCC/C=C\C/C=C\CCCCC)C(=O)c2ncn3c(=O)n(C)nnc23)CC1 [POH-TMZ-linoleate, (3-Methyl-4-oxo-3,4-dihydro-imidazo[5,1-d][1,2,3,5]tetrazine-8-carbonyl)-octadeca-9,12-dienoyl-carbamic acid 4-isopropenyl-cyclohex-1-enylmethyl ester] | more effective in killing the melanoma cells than POH-TMZ | more effective in killing the melanoma cells than POH-TMZ | much lower | much smaller | reduced vascularization | developed a hard surface |

From patent US11479554B2, “Pharmaceutical compositions comprising perillyl alcohol derivatives” (NeOnc Technologies, Inc., priority 2015, dated 2022)
